The values below come from publication PMC9918898, “Bioactive Clerodane Diterpenoids from the Leaves of Casearia coriacea Vent” (Molecules, 2023).

≈ marks a conversion by molar mass, not a printed value. Where “and” joins values, the source holds several entries; their conditions need not be identical. Equal values may be shown once. Read-outs that look alike come from different tables or passages of the source. Bounds are passed on as bounds.

In series [1] the test system is Trypanosoma brucei brucei. The series can be described thus: Antitrypanosomal assay (AlamarBlue). It is filed as cell-based. How it is done: (§1) A continuous in vitro culture of asexual erythrocyte stages of P. falciparum, chloroquine-sensitive strain 3D7 (ATCC), was maintained following the procedure of Trager and Jensen. Antiplasmodial activity tests were conducted as previously described by the determination of lactate deshydrogenase activity. IC50 was calculated from graphs (GraphPad Prism). T. brucei strain 427 (Molteno Institute in Cambridge, UK) and L. mexicana mexicana (MHOM/BZ/84/BEL46 from Pr. P.A.M Michels of De Duve Institue, UCLouvain) were maintained following the procedure previously described by the team of Pr. Quetin-Leclercq. Antileshmanial and antitrypanosomal assays were conducted as previously described, using the AlamarBlue assay.
On the technique in general: The colour change of resazurin is a common sign of viable cells or microbes.

Series [2] has as its system Leishmania mexicana mexicana. The series can be described thus: Antileishmanial assay (AlamarBlue). It is filed as cell-based. As for the experimental part: as §1
The subject of series [3] is P. falciparum 3D7. The series can be described thus: Antiplasmodial activity, lactate dehydrogenase assay. The series is classed as cell-based. To be noted: Plasmodium falciparum. As for the experimental part: as §1
Series [4] in a line: Hemolysis. The series is classed as cell-based.
Series [5] concerns PANC-1 cells. The series can be described thus: In vitro cytotoxic activity (Prestoblue). The series is classed as cell-based, human. The note with it: towards Plasmodium. How it is done:
(§2) Assays were performed on different human cancer cell lines (MDA-MB-231, PANC-1, and A549 cells obtained from ATCC) to evaluate the cytotoxicity potential of the compounds 1–3, and the crude extract. Cells were grown in high-glucose Dulbecco’s modified Eagle Medium (DMEM, Gibco) supplemented with glutamine (2 mM), penicillin (50 IU/mL), streptomycin (0.5 mg/mL), sodium pyruvate (0.5 mM), and 10% FBS (Foetal Bovine Serum) at 37 °C with 5% CO2 in the air. Compounds were tested in 96-well microplates using the Prestoblue® colorimetric assay for cell viability based on the reduction of resazurin in resorufin as previously described. Briefly, 2500 cells were seeded per well in 100 µL of medium supplemented with adequate concentrations of the tested drugs. After 72 h of drug exposure, 75 µL of diluted solution of Prestoblue reagent were added to each well, and the plate was incubated in the dark for 2 h at 37 °C. Any changes in cell viability were detected using fluorescence spectroscopy. The fluorescence of resorufin was measured using a SpectraMax i3 plate reader (Molecular Devices™) with excitation and emission wavelengths set at 560 nm and 590 nm, respectively. The cell viability was expressed as a percentage relative to control-vehicle-treated cells (DMSO 0.1%). IC50 values were calculated from graphs based on a regression line in which the resorufin fluorescence values were plotted against the logarithm of drug concentration.

The test system of series [6] is A549 cells. The series can be described thus: In vitro cytotoxic activity (Prestoblue). The series is classed as cell-based, human. The note with it: towards Plasmodium. As for the experimental part:
as §2

Series [7] relates to MDA-MB-231 cells. As to the kind of experiment: In vitro cytotoxic activity (Prestoblue). The note with it: towards Plasmodium. It is filed as cell-based, human. As for the experimental part:
as §2

Series [8] is described as follows: Zebrafish embryos acute toxicity test. To be noted: zebrafish (Danio rerio), in vivo, other: immersion of embryos in treatment solution in wells; zebrafish embryos. It is filed as in vivo, Danio rerio. As for the experimental part: (§3) Adult zebrafish (Danio rerio) were maintained, fulfilling the criteria of the Ethical Committee for the Use of Laboratory Animals at the University of Liège. They were maintained at 28 °C over a period of 14 h day/10 h night, and fertilized eggs were collected, washed with sterile water, and placed in Petri dishes. The embryos were collected, and their chorions were not removed at 24 hpf. Compound 1 was dissolved in DMSO (the maximum final concentration of DMSO was 0.4%). Twenty embryos were used per condition in a 6-well plate. Each well contained 5 mL of the treatment dose (compound 1 or DMSO 0.4%), which was replaced daily for three days. The embryos were observed under a binocular microscope daily until 72 hpf (hours post fertilization).

For series [9], the system named is zebrafish embryos. As to the kind of experiment: Zebrafish embryos acute toxicity test. It is filed as in vivo, Danio rerio. How it is done:
as §3

Series [10] concerns zebrafish. Also on record: method as in PMID 21738604. To be noted: cited from earlier work.
Setting [11] is: n = 3, mean ± SD, read-out: Trypanosoma IC50 (converted).
The mark [12] stands for this setting: n = 3, mean ± SD, read-out: Leishmania IC50 (converted).
Setting [13] is: 3D7, n = 3, mean ± SD, read-out: P. falciparum 3D7 IC50 (converted).

Take `C=CC(=C)CC[C@]1(C)[C@H]2C[C@H](OC(=O)C(C)CC)C=C3[C@H](OC(C)=O)O[C@H](OC(C)=O)[C@@]32[C@H](O)C[C@@H]1C` (relative stereo) [Compound 3, rel-(2S,5R,6R,8S,9S,10R,18S,19R)-18,19-epoxy-18,19-diacetoxy-6-hydroxy-2-(2-methylbutanoyloxy)cleroda-3,13(16),14-triene]: the IC50 in series [1] (setting [11]) was 3.03 µg/mL and 5.85 µM; in series [2] (setting [12]), 26 µg/mL and 50.3 µM; in series [3] (setting [13]) it was 0.51 µg/mL and 980 nM. This compound came in with a hemolysis in series [4] of less than 1%.

On to `C[C@@H]1CC[C@H]2[C@@H](C)C(=O)O[C@@H]3O[C@@]4(C)CC[C@@H]1[C@]32OO4` [Artemisinin, reference compound], for which, in series [3] (setting [13]), the IC50 was 0.004 ± 0.001 µg/mL (≈ 0.0142 µM).

Consider `C=CC(=C)CC[C@]1(C)[C@H]2C[C@H](OC(=O)CCC)C=C3[C@H](OC(C)=O)O[C@H](OC(C)=O)[C@@]32[C@H](O)C[C@@H]1C` [Compound 1, caseamembrin T], for which the IC50 in [1] (read-out: Trypanosoma IC50) is 3.08 µg/mL and 6.11 µM; in [2] (setting [12]), 26.1 µg/mL and 51.7 µM; in series [3] (3D7, read-out: P. falciparum 3D7 IC50) it was 0.25 µg/mL and 490 nM. The “selectivity index against PANC-1” value in [5] was 3. In addition, in [6], the “selectivity index against A549” value is 6.5. Moreover, the “selectivity index against MDA-MB-231” value in [7] is recorded as 5.4. Further, the LC50 at 3 days in [8] lay in the range of 1 to 5 µg/mL (≈ 1.98 to 9.91 µM). In addition, the embryos alive in [9] (5 µg/mL, 48 hpf) is 20%. Besides, the state of embryos result in series [9] (5 µg/mL, 72 hpf) is listed as “lifeless”. For the same compound, in series [9] (concentrations higher than 5 µg/mL), the lethality result is listed as “lethal for all embryos”. Besides, the “mortality and morphological change” value in [9] (up to a concentration of 1 µg/mL) was “neither mortality nor morphological change were observed”. Moreover, the hemolysis in [4] was less than 1%.

Take `C=CC(=C)CC[C@]1(C)[C@H]2C[C@H](OC(=O)C(C)C)C=C3[C@H](OC(C)=O)O[C@H](OC(C)=O)[C@@]32[C@H](O)C[C@@H]1C` [Compound 2, corymbulosine I]: the IC50 in [1] (setting [11]) was 3 µg/mL and 5.95 µM; in [2] (setting [12]), 10.3 µg/mL and 20.4 µM; in [3] (setting [13]) it was 0.4 µg/mL and 790 nM. The hemolysis in series [4] (red blood cells, read-out: Hemolysis) was less than 1%.

Take `N=C(N)c1ccc(OCCCCCOc2ccc(C(=N)N)cc2)cc1` [Pentamidine, reference compound]: in [2] (read-out: Leishmania IC50), the IC50 is 0.02 µg/mL and 60 nM.

As for `Cc1ccc(C(=O)Nc2ccc(S(=O)(=O)O)c3cc(S(=O)(=O)O)cc(S(=O)(=O)O)c23)cc1NC(=O)c1cccc(NC(=O)Nc2cccc(C(=O)Nc3cc(C(=O)Nc4ccc(S(=O)(=O)O)c5cc(S(=O)(=O)O)cc(S(=O)(=O)O)c45)ccc3C)c2)c1` [Suramine, reference compound], the IC50 in series [1] (setting [11]) was 0.05 µg/mL and 40 nM.

`C[C@H]1O[C@@H](O[C@H]2[C@@H](O)C[C@H](O[C@H]3[C@@H](O)C[C@H](O[C@H]4CC[C@@]5(C)[C@H](CC[C@@H]6[C@@H]5C[C@@H](O)[C@]5(C)[C@@H](C7=CC(=O)OC7)CC[C@]65O)C4)O[C@@H]3C)O[C@@H]2C)C[C@H](O)[C@@H]1O` [digoxin]: in [10], the “lethal dose 50 (LC50)” value is recorded as 0.5 ± 0.006 µg/mL.

Take `CN1CCC[C@H]1c1cccnc1` [nicotine]: the “lethal dose 50 (LC50)” value in series [10] is 35.1 ± 0.5 µg/mL.

Take `CC(=O)Nc1ccc(O)cc1` [paracetamol]: the “lethal dose 50 (LC50)” value in [10] is listed as 535.8 ± 17.1 µg/mL.

Broadly, the IC50 is the concentration that gives 50% inhibition. By LC50 is commonly meant the concentration that kills 50% of the test population. A low value points to a more lethal substance.
